Where “and” joins values, the source holds several entries; their conditions need not be identical. Identical values can stand only once.

In this assay the test system is 156681-154-R-J1-PDC complex spheroid viability. The assay is described as follows: Anticancer human tumor 156681-154-R-J1-PDC patient-derived melanoma cell line growth inhibition [CLK]. To be noted: for viability, T/C: stronger effect = lower value. In outline:
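Multi-cell-type spheroids combined patient-derived tumor cells with HUVEC endothelial cells and human mesenchymal stem cells. Paired agents were dosed in half-log steps down from about clinical Cmax, or from 10 microM where Cmax was unknown.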

Setting [1] is: curve of first compound, second compound 0.0316 µM.
Where [2] appears, read: curve of first compound, second compound 0.1 µM.
Setting [3] is: curve of first compound, second compound 0.316 µM.
The mark [4] stands for this setting: curve of first compound, second compound 1 µM.
The mark [5] stands for this setting: curve of first compound, second compound 3.16 µM.
Where [6] appears, read: curve of first compound, second compound 10 µM.
[7] abbreviates: second compound 0.0316 µM, first compound 0.00949 µM.
[8] abbreviates: second compound 0.0316 µM, first compound 0.03 µM.
Where [9] appears, read: second compound 0.0316 µM, first compound 0.0949 µM.
The mark [10] stands for this setting: second compound 0.0316 µM, first compound 0.3 µM.
Setting [11] is: second compound 0.1 µM, first compound 0.00949 µM.
Where [12] appears, read: second compound 0.1 µM, first compound 0.03 µM.
The mark [13] stands for this setting: second compound 0.1 µM, first compound 0.0949 µM.
Where [14] appears, read: second compound 0.1 µM, first compound 0.3 µM.
Where [15] appears, read: second compound 0.316 µM, first compound 0.00949 µM.
The mark [16] stands for this setting: second compound 0.316 µM, first compound 0.03 µM.
Setting [17] is: second compound 0.316 µM, first compound 0.0949 µM.
[18] abbreviates: second compound 0.316 µM, first compound 0.3 µM.
Setting [19] is: second compound 1 µM, first compound 0.00949 µM.
Where [20] appears, read: second compound 1 µM, first compound 0.03 µM.
Where [21] appears, read: second compound 1 µM, first compound 0.0949 µM.
Where [22] appears, read: second compound 1 µM, first compound 0.3 µM.
Where [23] appears, read: second compound 3.16 µM, first compound 0.00949 µM.
[24] abbreviates: second compound 3.16 µM, first compound 0.03 µM.
The mark [25] stands for this setting: second compound 3.16 µM, first compound 0.0949 µM.
Setting [26] is: second compound 3.16 µM, first compound 0.3 µM.
The mark [27] stands for this setting: second compound 10 µM, first compound 0.00949 µM.
[28] abbreviates: second compound 10 µM, first compound 0.03 µM.
Where [29] appears, read: second compound 10 µM, first compound 0.0949 µM.
The mark [30] stands for this setting: second compound 10 µM, first compound 0.3 µM.
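Further: spheroids exposed to the agents for seven days.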
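Wherever viability, T/C is given: 100% = DMSO vehicle control viability.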

For the molecule `C=CC(=O)Nc1cc(Nc2nccc(-c3cn(C)c4ccccc34)n2)c(OC)cc1N(C)CCN(C)C` + CNC(=O)c1ccc(Nc2nc(OC3CCCC3)c3c(-c4ccc5nc(C)oc5c4)c[nH]c3n2)c(OC)c1, the IC50 (in general, the concentration that gives 50% inhibition) reads like this: under setting [1], > 300 nM; under setting [2], > 300 nM; under setting [3], > 300 nM; under setting [4], 242 nM; under setting [5], 2.45 nM; under setting [6], < 0.949 nM. For the same molecule, the viability, T/C (commonly the ratio of treated to control) by setting is: (second compound 0.0316 µM, first compound 0.000949 µM) 82.8%; (second compound 0.0316 µM, first compound 0.003 µM) 97.7%; under setting [7], 90.6%; under setting [8], 111%; under setting [9], 109%; under setting [10], 90%. Further, the viability, T/C runs as follows: (second compound 0.1 µM, first compound 0.000949 µM) 67.7%; (second compound 0.1 µM, first compound 0.003 µM) 64.1%; under setting [11], 61.8%; under setting [12], 68.5%; under setting [13], 64.3%; under setting [14], 64.8%. For the same molecule, the viability, T/C was 71.5% (second compound 0.316 µM, first compound 0.000949 µM); 64.8% (second compound 0.316 µM, first compound 0.003 µM); 83.1% under setting [15]; 62.7% under setting [16]; 63.2% under setting [17]; 64% under setting [18]. Further, the viability, T/C (second compound 1 µM, first compound 0.000949 µM) is 62.1%; the viability, T/C (second compound 1 µM, first compound 0.003 µM) was 56%; the viability, T/C under setting [19] is 53.5%; the viability, T/C under setting [20] was 48.2%; the viability, T/C under setting [21] is 64.8%; the viability, T/C under setting [22] is 43.6%. The viability, T/C runs as follows: (second compound 3.16 µM, first compound 0.000949 µM) 50.1%; (second compound 3.16 µM, first compound 0.003 µM) 57.6%; under setting [23], 35.2%; under setting [24], 47.2%; under setting [25], 37.9%; under setting [26], 29.1%. Further, the viability, T/C was 44.9% (second compound 10 µM, first compound 0.000949 µM); 41.8% (second compound 10 µM, first compound 0.003 µM); 31.9% under setting [27]; 43.1% under setting [28]; 45% under setting [29]; 24.2% under setting [30].

As to `O=c1[nH]cc(F)c(=O)[nH]1`, the viability, T/C is 72.7% and 87.1% (compound 0.0316 µM); 85.4% and 88.9% (compound 0.1 µM); 84.8% and 79.8% (compound 0.316 µM); 91% and 90.6% (compound 1 µM); 81.6% and 80.6% (compound 3.16 µM); 34% and 35.9% (compound 10 µM). Besides, the IC50 (curve of compound) is 6800 nM and 7000 nM.

Turning to `NC(=O)C(=Cn1cnc(-c2cc(C(F)(F)F)cc(C(F)(F)F)c2)n1)c1cncnc1` + CN1CCN(c2cc(C(=O)Nc3cc4cc(-c5cnn(C)c5)ccc4cn3)ccn2)CC1, the IC50 runs as follows: under setting [1], 61 nM; under setting [2], 31.3 nM; under setting [3], < 9.49 nM; under setting [4], < 9.49 nM; under setting [5], < 9.49 nM; under setting [6], < 9.49 nM. The viability, T/C was 93.5% under setting [7]; 63.4% under setting [8]; 45.5% under setting [9]; 13.1% under setting [10]; 4.9% (second compound 0.0316 µM, first compound 0.949 µM); 3.07% (second compound 0.0316 µM, first compound 3 µM). Further, the viability, T/C runs as follows: under setting [11], 64.3%; under setting [12], 50.4%; under setting [13], 26.6%; under setting [14], 6.93%; (second compound 0.1 µM, first compound 0.949 µM) 2.72%; (second compound 0.1 µM, first compound 3 µM) 1.03%. The viability, T/C runs as follows: under setting [15], 10.8%; under setting [16], 8.6%; under setting [17], 1.88%; under setting [18], 0.07%; (second compound 0.316 µM, first compound 0.949 µM) 1.67%; (second compound 0.316 µM, first compound 3 µM) 1.86%. The viability, T/C by setting is: under setting [19], 0.14%; under setting [20], 0.33%; under setting [21], 0.11%; under setting [22], 0.39%; (second compound 1 µM, first compound 0.949 µM) 2.63%; (second compound 1 µM, first compound 3 µM) 0.65%. Also, the viability, T/C is 0.07% under setting [23]; 2.18% under setting [24]; 2.61% under setting [25]; 1.32% under setting [26]; 1.52% (second compound 3.16 µM, first compound 0.949 µM); 0.84% (second compound 3.16 µM, first compound 3 µM). In addition, the viability, T/C is 0.07% under setting [27]; 1.56% under setting [28]; 1.25% under setting [29]; 2.65% under setting [30]; 2.11% (second compound 10 µM, first compound 0.949 µM); 0.95% (second compound 10 µM, first compound 3 µM).

In the case of `C=CC(=O)Nc1cc(Nc2nccc(-c3cn(C)c4ccccc34)n2)c(OC)cc1N(C)CCN(C)C`, the viability, T/C is 98.3% and 114% (compound 0.000949 µM); 88.5% and 85.6% (compound 0.003 µM); 96.7% and 88.3% (compound 0.00949 µM); 101% and 96.3% (compound 0.03 µM); 93.5% and 100% (compound 0.0949 µM); 80.8% and 90% (compound 0.3 µM). Under “curve of compound”, the 50% inhibitory concentration (IC50) was > 300 nM.

For the molecule `C=CC(=O)N1CCN(c2nc(=O)n(-c3c(C)ccnc3C(C)C)c3nc(-c4c(O)cccc4F)c(F)cc23)C(C)C1` (stereo not given), the viability, T/C (compound 0.0316 µM) is 99.5% and 84.9%; the viability, T/C (compound 0.1 µM) was 91.5% and 76.2%; the viability, T/C (compound 0.316 µM) is 101% and 112%; the viability, T/C (compound 1 µM) was 89.7% and 114%; the viability, T/C (compound 3.16 µM) was 116% and 106%; the viability, T/C (compound 10 µM) was 80.5% and 108%. The concentration for half-maximal inhibition (IC50) (curve of compound) is > 10000 nM.

Source of the values: PubChem BioAssay AID2060627 (Molecular Pharmacology Branch, DTP, NCI, 2025).
